Test results: patent US20230141101A1, “PDE4 INHIBITOR COMPOUND AND MEDICAL USE THEREOF” (Suzhou Longbotai Pharmaceuticals Co., Ltd., priority 2020, published 2023)

How the values were obtained:
Type in all cases: biochemical
Conditions in all cases: 20 nM
[1] = molecular target: T1, PDE4B1 (Homo sapiens, UniProt Q07343); experiment: PDE4 inhibitory activity assay (FAM-cAMP enzymatic reaction), PDE4B1
T1 construct: purchased BPS 60041
Outline: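 Each isoform is incubated with test compound for 15 min at room temperature before FAM-cAMP substrate starts a 30-min reaction.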

[2] = molecular target: T2, PDE4A1A (Homo sapiens, UniProt P27815); experiment: PDE4 inhibitory activity assay (FAM-cAMP enzymatic reaction), PDE4A1A
T2 construct: purchased BPS 60040
T2 sequence (P27815 1-647 isoform P27815-4): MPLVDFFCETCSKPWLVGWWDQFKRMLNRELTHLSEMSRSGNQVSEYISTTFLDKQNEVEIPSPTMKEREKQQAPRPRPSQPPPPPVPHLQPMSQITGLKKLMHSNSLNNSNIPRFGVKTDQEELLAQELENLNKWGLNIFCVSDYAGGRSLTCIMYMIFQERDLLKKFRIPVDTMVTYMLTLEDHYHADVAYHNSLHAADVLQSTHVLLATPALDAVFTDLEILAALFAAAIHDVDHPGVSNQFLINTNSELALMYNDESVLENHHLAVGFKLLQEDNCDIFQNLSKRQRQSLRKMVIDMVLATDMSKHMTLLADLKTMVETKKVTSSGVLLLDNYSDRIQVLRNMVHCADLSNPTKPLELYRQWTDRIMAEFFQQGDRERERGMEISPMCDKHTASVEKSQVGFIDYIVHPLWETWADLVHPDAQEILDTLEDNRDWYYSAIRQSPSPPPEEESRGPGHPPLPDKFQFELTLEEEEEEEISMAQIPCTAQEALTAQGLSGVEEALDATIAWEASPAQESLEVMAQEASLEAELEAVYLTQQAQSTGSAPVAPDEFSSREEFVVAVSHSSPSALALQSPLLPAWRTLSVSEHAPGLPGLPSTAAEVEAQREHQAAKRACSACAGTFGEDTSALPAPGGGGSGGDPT
Outline: (§1)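 Human PDE4A1A, PDE4B1 or PDE4D2 preincubated with compound 15 min at room temperature, then FAM-cAMP substrate added; reaction 30 min at room temperature before stop solution and further 60 min. Fluorescence read on multilabel counter; IC50 fitted from inhibition rates.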

[3] = molecular target: PDE4D2 (Homo sapiens, UniProt Q08499); experiment: PDE4 inhibitory activity assay (FAM-cAMP enzymatic reaction), PDE4D2
PDE4D2, sequence (Q08499 303-809): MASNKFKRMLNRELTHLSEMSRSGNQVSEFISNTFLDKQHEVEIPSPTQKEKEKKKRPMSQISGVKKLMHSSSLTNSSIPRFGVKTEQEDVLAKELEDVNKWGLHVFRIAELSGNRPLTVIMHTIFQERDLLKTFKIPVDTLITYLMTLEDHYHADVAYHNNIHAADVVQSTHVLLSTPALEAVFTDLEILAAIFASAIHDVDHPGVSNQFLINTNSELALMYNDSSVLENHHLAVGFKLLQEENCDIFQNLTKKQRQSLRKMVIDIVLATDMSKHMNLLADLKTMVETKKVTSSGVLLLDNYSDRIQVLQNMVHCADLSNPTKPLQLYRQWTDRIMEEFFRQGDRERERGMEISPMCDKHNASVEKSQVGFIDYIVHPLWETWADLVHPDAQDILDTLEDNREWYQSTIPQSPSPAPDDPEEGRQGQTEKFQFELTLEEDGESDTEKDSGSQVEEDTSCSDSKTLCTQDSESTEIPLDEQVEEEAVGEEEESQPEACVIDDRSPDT
Outline: as §1

T1 sequence (Q07343 whole entry): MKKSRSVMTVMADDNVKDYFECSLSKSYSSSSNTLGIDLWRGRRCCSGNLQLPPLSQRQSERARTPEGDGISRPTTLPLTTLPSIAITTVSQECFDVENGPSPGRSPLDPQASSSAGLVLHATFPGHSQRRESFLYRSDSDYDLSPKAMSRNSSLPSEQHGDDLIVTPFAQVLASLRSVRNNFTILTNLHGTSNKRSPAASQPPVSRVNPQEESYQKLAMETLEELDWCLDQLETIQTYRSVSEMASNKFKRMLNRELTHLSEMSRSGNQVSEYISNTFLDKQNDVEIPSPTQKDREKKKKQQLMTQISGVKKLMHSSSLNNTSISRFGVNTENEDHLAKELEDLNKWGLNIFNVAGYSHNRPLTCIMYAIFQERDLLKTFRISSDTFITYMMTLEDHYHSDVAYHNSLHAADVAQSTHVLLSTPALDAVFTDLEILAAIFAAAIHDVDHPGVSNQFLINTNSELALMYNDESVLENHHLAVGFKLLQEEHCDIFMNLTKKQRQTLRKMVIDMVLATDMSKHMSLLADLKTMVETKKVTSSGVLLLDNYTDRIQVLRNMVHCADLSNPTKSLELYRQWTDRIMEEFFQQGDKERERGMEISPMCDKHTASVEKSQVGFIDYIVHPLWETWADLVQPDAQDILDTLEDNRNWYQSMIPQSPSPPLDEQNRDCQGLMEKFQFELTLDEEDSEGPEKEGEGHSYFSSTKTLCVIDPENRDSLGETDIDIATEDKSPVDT

CCOc1nc([C@@H](CS(C)(=O)=O)n2c(=O)[nH]c3cc(-c4cccc(F)c4C)cnc32)ccc1OC [Ex. 111, (S)-6-(3-fluoro-2-methylphenyl)-3-(1-(6-ethoxy-5-methoxypyridin-2-yl)-2-(methylsulfonyl)ethyl)-1H-imidazo[4,5-b]pyridin-2(3H)-one]
+: PDE4 B1 inhibitory effect at 20 nM [1] | PDE4 A1 inhibitory effect at 20 nM [2] | PDE4 D2 inhibitory effect at 20 nM [3]

CCOc1nc([C@@H](CS(C)(=O)=O)n2c(=O)n(C)c3cc(-c4cccc(F)c4C)cnc32)ccc1OC [Ex. 112, (S)-6-(3-fluoro-2-methylphenyl)-3-(1-(6-ethoxy-5-methoxypyridin-2-yl)-2-(methylsulfonyl)ethyl)-1-methyl-1H-imidazo[4,5-b]pyridin-2(3H)-one]
+: PDE4 B1 inhibitory effect at 20 nM [1] | PDE4 A1 inhibitory effect at 20 nM [2] | PDE4 D2 inhibitory effect at 20 nM [3]

CCOc1nc([C@@H](CS(C)(=O)=O)n2c(=O)[nH]c3cc(-c4cc(C)ccc4F)cnc32)ccc1OC [Ex. 113, (S)-6-(2-fluoro-5-methylphenyl)-3-(1-(6-ethoxy-5-methoxypyridin-2-yl)-2-(methylsulfonyl)ethyl)-1H-imidazo[4,5-b]pyridin-2(3H)-one]
+: PDE4 B1 inhibitory effect at 20 nM [1] | PDE4 A1 inhibitory effect at 20 nM [2] | PDE4 D2 inhibitory effect at 20 nM [3]

CCOc1nc([C@@H](CS(C)(=O)=O)n2c(=O)n(C)c3cc(-c4cc(C)ccc4F)cnc32)ccc1OC [Ex. 114, (S)-6-(2-fluoro-5-methylphenyl)-3-(1-(6-ethoxy-5-methoxypyridin-2-yl)-2-(methylsulfonyl)ethyl)-1-methyl-1H-imidazo[4,5-b]pyridin-2(3H)-one]
+: PDE4 B1 inhibitory effect at 20 nM [1] | PDE4 A1 inhibitory effect at 20 nM [2] | PDE4 D2 inhibitory effect at 20 nM [3]

CCOc1nc([C@@H](CS(C)(=O)=O)n2c(=O)[nH]c3cc(-c4ccc(C)cc4F)cnc32)ccc1OC [Ex. 115]
+: PDE4 B1 inhibitory effect at 20 nM [1] | PDE4 A1 inhibitory effect at 20 nM [2] | PDE4 D2 inhibitory effect at 20 nM [3]

CCOc1nc([C@@H](CS(C)(=O)=O)n2c(=O)n(C)c3cc(-c4ccc(C)cc4F)cnc32)ccc1OC [Ex. 116, (S)-6-(2-fluoro-4-methylphenyl)-3-(1-(6-ethoxy-5-methoxypyridin-2-yl)-2-(methylsulfonyl)ethyl)-1-methyl-1H-imidazo[4,5-b]pyridin-2(3H)-one]
+: PDE4 B1 inhibitory effect at 20 nM [1] | PDE4 A1 inhibitory effect at 20 nM [2] | PDE4 D2 inhibitory effect at 20 nM [3]

CCOc1nc([C@@H](CS(C)(=O)=O)n2c(=O)[nH]c3cc(-c4cc(F)ccc4OC)cnc32)ccc1OC [Ex. 117, (S)-6-(5-fluoro-2-methoxyphenyl)-3-(1-(6-ethoxy-5-methoxypyridin-2-yl)-2-(methylsulfonyl)ethyl)-1H-imidazo[4,5-b]pyridin-2(3H)-one]
+: PDE4 B1 inhibitory effect at 20 nM [1] | PDE4 A1 inhibitory effect at 20 nM [2] | PDE4 D2 inhibitory effect at 20 nM [3]

CCOc1nc([C@@H](CS(C)(=O)=O)n2c(=O)n(C)c3cc(-c4cc(F)ccc4OC)cnc32)ccc1OC [Ex. 118, (S)-6-(5-fluoro-2-methoxyphenyl)-3-(1-(6-ethoxy-5-methoxypyridin-2-yl)-2-(methylsulfonyl)ethyl)-1-methyl-1H-imidazo[4,5-b]pyridin-2(3H)-one]
+: PDE4 B1 inhibitory effect at 20 nM [1] | PDE4 A1 inhibitory effect at 20 nM [2] | PDE4 D2 inhibitory effect at 20 nM [3]

CCOc1nc([C@@H](CS(C)(=O)=O)n2c(=O)[nH]c3cc(-c4ccc(F)cc4OC)cnc32)ccc1OC [Ex. 119, (S)-6-(4-fluoro-2-methoxyphenyl)-3-(1-(6-ethoxy-5-methoxypyridin-2-yl)-2-(methylsulfonyl)ethyl)-1H-imidazo[4,5-b]pyridin-2(3H)-one]
+: PDE4 B1 inhibitory effect at 20 nM [1] | PDE4 A1 inhibitory effect at 20 nM [2] | PDE4 D2 inhibitory effect at 20 nM [3]
